Source: paper PMC10245392, “Fed- and Fasted-State Performance of Pretomanid Amorphous Solid Dispersions Formulated with an Enteric Polymer” (Molecular Pharmaceutics, 2023)
≈ marks a conversion by molar mass, not a printed value. Where “and” joins values, the source holds several entries; their conditions need not be identical. Identical values can stand only once. Like-named read-outs stand apart in the source and are kept apart here.

Assays:
[1] = the highest pKa value at 25 °C; ref 42 and references of Table S2; cited from earlier work
physchem [2] = details: kinetic from dmso stock
[3] = monkeys, PTM suspension in 0.5% sodium carboxymethyl cellulose; cited from earlier work
[4] = guinea pig, in vivo; cited from earlier work
physchem [5] = experiment: physchem
[6] = humans, 200 mg PTM with high-calorie, high-fat meal; cited from earlier work
[7] = cited from earlier work
[8] = Drug nucleation induction time (UV extinction at 440 nm); type: physicochemical; details: for induction time at 160 μg/mL: no polymer, 37 °C
[9] = rats, PTM with hydroxypropyl-β-cyclodextrin; cited from earlier work
[10] = Glass transition temperature by DSC; type: physicochemical; details: for reduced glass transition temperature (Tg/Tm): calculated as Tg/Tm
Description: The glass transition temperature (Tg) of ASD samples was measured by a TA Q2000 differential scanning calorimeter (DSC) equipped with an RCS90 refrigeration unit (TA Instruments, New Castle, DE). The temperature calibration was performed using indium and tin, while enthalpy calibration was conducted with indium. The samples (5–10 mg) were added to aluminum pans with a pinhole lid (Tzero pan, TA Instrument, DE). The sample was equilibrated at −20 °C and heated from −20 to 210 °C at 5 °C/min then cooled back down to −20 °C at 10 °C/min under a nitrogen flow of 50 mL/min. The heating and cooling cycle was repeated three times to remove residual solvent and thermal history, and the last cycle was used for analysis.

[11] = not given; remark: listed apart in the source

For `CN(C)CCO` [2-Dimethylaminoethanol], the pKa [1] is given as 9.23.
For `O=[N+]([O-])c1cn2c(n1)OC[C@@H](OCc1ccc(OC(F)(F)F)cc1)C2` [PTM, Pretomanid], the “factor of increase of equilibrium solubility” value (pH 5.8) was roughly 6, the “factor of increase of equilibrium solubility” value (pH 6.5) was roughly 3 and the solubility (physchem [2]; pH 1.6, simulated gastric fluid) was 141 ± 3.7 µg/mL (≈ 392 µM). It also gave a solubility (physchem [2]; pH 3, aqueous buffer) of 143 ± 2.4 µg/mL (≈ 399 µM), a solubility (physchem [2]; pH 5, aqueous buffer) of 160 ± 5.7 µg/mL (≈ 444 µM) and a solubility (physchem [2]; pH 6.5, aqueous buffer) of 166 ± 6.2 µg/mL (≈ 462 µM). The solubility (physchem [2]; pH 6.5, fassif) was 308 ± 12 µg/mL (≈ 857 µM), the mean oral bioavailability [3] was 19% and the systemic exposure [4] was 6.7–13.5%. The solubility thermodynamic (physchem [5]) was 15 to 18 µg/mL (≈ 41.8 to 50.1 µM), the solubility (physchem [5]; 37 °C, pH 1.6, simulated gastric fluid, thermodynamic from solid) was 15.2 ± 1.4 µg/mL (≈ 42.3 µM) and the solubility (physchem [5]; 37 °C, pH 3, aqueous buffer, thermodynamic from solid) was 17.8 ± 0.3 µg/mL (≈ 49.5 µM). For the same compound, the solubility (physchem [5]; 37 °C, pH 5, aqueous buffer, thermodynamic from solid) was 16.8 ± 0.1 µg/mL (≈ 46.8 µM), the solubility (physchem [5]; 37 °C, pH 5.8, aqueous buffer, thermodynamic from solid) was 17 ± 0.3 µg/mL (≈ 47.3 µM) and the solubility (physchem [5]; 37 °C, pH 5.8, fessif, thermodynamic from solid) was 108.1 ± 0.1 µg/mL (≈ 301 µM). For the same compound, the solubility (physchem [5]; 37 °C, pH 6.5, aqueous buffer, thermodynamic from solid) was 16.2 ± 1.4 µg/mL (≈ 45.1 µM), the solubility (physchem [5]; 37 °C, pH 6.5, fassif, thermodynamic from solid) was 53.8 ± 4 µg/mL (≈ 150 µM) and the solubility (physchem [5]; pH 5.8) was roughly 110 µg/mL (≈ 306 µM). The “increase in AUC0-inf with food” value [6] was 88%, the “increase in Cmax with food” value [6] was 76% and the water solubility [7] was 10 to 20 µg/mL. The induction time [8] was 77.6 ± 13.6 min and ~77 min, the “induction time at 160 μg/mL” value ([8]; FaSSIF V1 (pH 6.5)) was 0.9 ± 0.3 min and the “induction time at 160 μg/mL” value ([8]; HCl solution (pH 1.6)) was 1.6 ± 0.2 min. The induction time ([8]; PTM 80 μg/mL, PB (pH 6.5), 100 μg/mL HPMC) was roughly 22 min, the “nucleation induction time in solution” value ([8]; media of Table 2, no polymer) was “less than 2 min” and the “induction time (no crystallization observed up to)” value ([8]; pH 6.5) was greater than 1000 min. For the same compound, the “induction time at 160 μg/mL” value ([8]; phosphate buffer (pH 3.0)) was 1.3 ± 0.1 min, the “induction time at 160 μg/mL” value ([8]; phosphate buffer (pH 5.0)) was 1.6 ± 0.2 min and the “induction time at 160 μg/mL” value ([8]; phosphate buffer (pH 6.5)) was 1.4 ± 0.2 min. For the same compound, the mean oral bioavailability [9] was 52%, the “reduced glass transition temperature (Tg/Tm)” value [10] was 0.67 and the “Tg (glass transition temperature)” value ([10]; neat drug) was 10 °C. The “A/C ratio (amorphous/crystalline solubility ratio)” value ([11]; HCl solution (pH 1.6)) was 9.3, the “amorphous/crystalline solubility (A/C) ratio” value ([11]; buffer solutions, overall) was 8–10 and the “A/C ratio (amorphous/crystalline solubility ratio)” value ([11]; phosphate buffer (pH 3.0)) was 8.1. For the same compound, the “A/C ratio (amorphous/crystalline solubility ratio)” value ([11]; phosphate buffer (pH 5.0)) was 9.5 and the “A/C ratio (amorphous/crystalline solubility ratio)” value ([11]; phosphate buffer (pH 6.5)) was 10.2.
In the case of `C[C@]1(COc2ccc(N3CCC(Oc4ccc(OC(F)(F)F)cc4)CC3)cc2)Cn2cc([N+](=O)[O-])nc2O1` [delamanid], the “Tg (glass transition temperature)” value ([7]; neat drug) is listed as roughly 43 °C and the “reduced glass transition temperature (Tg/Tm)” value [10] is listed as 0.64.
